Laboratory results as given in article PMC9866314 (Viruses, 2022).

Key:
[1] = system: FMDV serotype A (NP05); assay: microbe, parasite or virus in culture; assay type: cell-based; conditions: Foot-and-mouth disease virus; for EC50: BHK-21, read-out: Antiviral Activity EC50; for EC90: BHK-21, read-out: Antiviral Activity EC90
[2] = in vitro; conditions: hamster
[3] = system: RD114 glycoprotein (RD114pp) of endogenous feline retrovirus; conditions: read-out: IC50 against RD114pp; cited from earlier work

Row | Compound | EC50 [1] | EC90 [1] | CC50 [2] | IC50 [3]
1 | CC1=CC(C)(C)Nc2ccc(Cc3ccc4c(c3)C(C)=CC(C)(C)N4)cc21 [NSC217697, 6,6′-methylene bis(2,2,4-trimethyl-1,2-dihydroquinoline)] | 0.78 ± 0.1 µM | 9.52 ± 0.18 µM | > 100 µM | –
2 | CO[C@@H]1C[C@@H](C[C@H]2CC[C@H](C)[C@H]([C@@H](C)C(=O)O)O2)O[C@]2(O[C@](C)([C@H]3CC[C@@](C)([C@@H]4O[C@@H]([C@H]5O[C@@](O)(CO)[C@H](C)C[C@@H]5C)C[C@@H]4C)O3)C[C@H]2C)[C@@H]1C [NSC292567, Pandavir/Nigericin] | 0.42 ± 0.08 µM | 3.85 ± 0.34 µM | 49.9 ± 1.7 µM | –
3 | O=C1CCCc2cc3c(cc21)CC1(C3)Cc2cc3c(cc2C1)C(=O)CCC3 [NSC670283, 2,2′-spirobi [3,6,7,8-tetrahydro-1H-cyclopenta[g]naphthalene]-5,5′-dione] | 3.38 ± 1.02 µM | 30.45 ± 0.25 µM | > 100 µM | 3 µM
4 | NC(=O)c1ncn([C@@H]2O[C@H](CO)[C@@H](O)[C@H]2O)n1 [Ribavirin, 1-β-d-ribofuranosyl-1,2,4-triazole-3-carboxamide, reference compound] | 42.89 ± 0.42 µM | 393.6 ± 2.56 µM | > 100 µM | –
5 | CCOC(=O)/C=C/[C@H](C[C@@H]1CCNC1=O)NC(=O)[C@@H](CC(=O)[C@@H](NC(=O)c1cc(C)on1)C(C)C)Cc1ccc(F)cc1 [Rupintrivir, reference compound] | 2.02 ± 0.3 µM | 12.1 ± 1.6 µM | > 100 µM | –
